Assay results reported in US20240182941A1, “XYLOSYLATED STEVIOL GLYCOSIDES AND ENZYMATIC METHODS FOR PRODUCTION” (CARGILL, INCORPORATED, priority 2021, published 2024).
Several values for one entry are separate records, joined by “and”; a condition that tells them apart may be missing. Identical values can stand only once. Blank lines part the entries; values can stand above or below the molecule they belong to.

Key:
[1] = test system: SEQ ID NO:1; experiment: Glycosylation of Reb F, Reb G and Dulcoside A using SEQ ID NO:1 and activated sugars; assay type: biochemical, Oryza sativa Japonica Group; details: for Rhamnosylation using UDP-rhamnose compared with glucosylation and xylosylation / glucosylation and xylosylation plateauing after: -19C(O)-β-Glc residue; for glucosylation and xylosylation plateauing after: UDP-glucose and UDP-xylose
Description: Bioconversion reaction was carried out in a total of 100 uL sealed vials containing the Tris buffer, 0.1 μmoles of SG acceptor, 0.2 μmoles of activated sugar donor, 1 μmoles of sucrose and 2 ug protein of the enzymes. To each vial, buffer, sucrose, UDP-sugar donor, and SG acceptor were added in that order before finally the enzymes were added. For each SG donor, a control was included to contain the same amounts of sucrose and enzymes without UDP-sugar donors. After hand mixing, the vials were placed in a temperature-controlled shaker set at 30C and 100 rpm in rotating motion for 96 hours (4 days).
After 4 days of reaction, 0.9 mL of 80% acetonitrile was added to each vial and the resulting samples were analyzed in LC/MS. Xylose modification of the -19C(O)-β-Glc residue was confirmed.
The ability of SEQ ID NO:1 to glycosylate the -19C(O)-β-Glc residue of RebF, RebG, and Dulcoside A with different activated sugars used at different concentrations was examined, with the reaction products formed being measured over the course of the reaction.
UDP-glucose, UDP-xylose, and UDP-rhamnose di-sodium salts were used, and the reagents and reaction conditions were as described in Example 1.

[2] = Glycosyltransferase assay of SEQ ID NO:1 homologs and variants (IVTT enzymes) on Reb A; assay type: biochemical; details: Reb A acceptor; for Activity relative to the activity of SEQ ID NO:1, Glucose: UDP-glucose; for Activity relative to the activity of SEQ ID NO:1, Glucose / Activity relative to the activity of SEQ ID NO:1, Xylose: SEQ ID1 = 100%; for Activity relative to the activity of SEQ ID NO:1, Xylose: UDP-xylose
Description: Candidate xylosyltransferase enzymes are produced in vitro using the PURExpress In Vitro Protein Synthesis kit from New England Biolabs (NEB #E6800) according to the manufacturer's instructions, including 250 ng plasmid DNA and the addition of 20 units RNase Inhibitor, Murine (NEB #M0314).
The steviol glycoside (SG) ‘acceptors’ Reb A was tested using 4 glucosyltransferase enzymes (SEQ ID NOs: 1-4) homologous to glucosyltransferases in SG biosynthesis in stevia leaves.
UDP-xylose (98.9% purity) was purchased from BOC Sciences. The activated sugar donors were prepared to 10 mM concentration with 0.05 M tris buffer and stored according to manufacturers' recommendations before use. SG materials were obtained from various sources with 90%+ purities. All SG materials were prepared at 20 mM with 90% DMSO and stored at ambient temperature. Final DMSO concentration in the reaction mixture was 4.5%.
Tris (tris(hydroxymethyl)aminomethane) buffer was prepared at 0.05 M, pH 7.3 and contained 3 mM each of MgCl2 and MnCl2 as co-factors.
Enzymes were produced via in vitro transcription-translation (IVTT) and activities were confirmed using UDP-glucose in a preliminary test. Bioconversion reaction was carried out in a total of 100 μL sealed vials containing the Tris buffer, 0.1 μmoles of SG acceptor, 0.2 μmoles of activated sugar donor, 1 μmoles of sucrose and 2 μg protein of the enzymes. To each vial, buffer, UDP-sugar donor, SG acceptor were added in that order before, finally, the enzymes were added. For each SG donor, a control was included to contain the same amounts of enzymes without UDP-sugar donors. […]
[…] Xylose modification of the -19C(O)-β-Glc residue was confirmed.
Activity of SEQ ID NOs: 2-4 is expressed relative to the activity of SEQ ID NO:1. […] [SEQ ID NO:3 was run more than once in this experiment,]

Molecule: C=C1C[C@@]23CC[C@H]4[C@@](C)(CCC[C@@]4(C)C(=O)O[C@@H]4O[C@H](CO)[C@@H](O)[C@H](O)[C@H]4O)[C@@H]2CC[C@]1(O[C@@H]1O[C@H](CO)[C@@H](O)[C@H](O)[C@H]1O[C@@H]1O[C@@H](C)[C@H](O)[C@@H](O)[C@H]1O)C3 [Dulcoside A, dulcoside A]
Rhamnosylation using UDP-rhamnose compared with glucosylation and xylosylation [1]: significantly lower
% Dul A bioconversion ([1]; UDP-Glucose, 0 hours): 0%
% Dul A bioconversion ([1]; UDP-Glucose, 15 hours): 77.162%
% Dul A bioconversion ([1]; UDP-Glucose, 48 hours): 75.215%
% Dul A bioconversion ([1]; UDP-Glucose, 96 hours): 73.71%
% Dul A bioconversion ([1]; UDP-Rhamnose, 0 hours): 0%
% Dul A bioconversion ([1]; UDP-Rhamnose, 15 hours): 17.384%
% Dul A bioconversion ([1]; UDP-Rhamnose, 48 hours): 27.427%
% Dul A bioconversion ([1]; UDP-Rhamnose, 96 hours): 32.608%
% Dul A bioconversion ([1]; UDP-Xylose, 0 hours): 0%
% Dul A bioconversion ([1]; UDP-Xylose, 15 hours): 79.34%
% Dul A bioconversion ([1]; UDP-Xylose, 48 hours): 79.919%
% Dul A bioconversion ([1]; UDP-Xylose, 96 hours): 79.349%
glucosylation and xylosylation plateauing after [1]: 20 min

Molecule: C=C1C[C@@]23CC[C@H]4[C@@](C)(CCC[C@@]4(C)C(=O)O[C@@H]4O[C@H](CO)[C@@H](O)[C@H](O)[C@H]4O)[C@@H]2CC[C@]1(O[C@@H]1O[C@H](CO)[C@@H](O)[C@H](O[C@@H]2O[C@H](CO)[C@@H](O)[C@H](O)[C@H]2O)[C@H]1O)C3 [Reb G, rebaudioside G]
Rhamnosylation using UDP-rhamnose compared with glucosylation and xylosylation [1]: significantly lower
% Reb G bioconversion ([1]; UDP-Glucose, 0 hours): 0%
% Reb G bioconversion ([1]; UDP-Glucose, 15 hours): 87.748%
% Reb G bioconversion ([1]; UDP-Glucose, 48 hours): 85.225%
% Reb G bioconversion ([1]; UDP-Glucose, 96 hours): 83.427%
% Reb G bioconversion ([1]; UDP-Rhamnose, 0 hours): 0%
% Reb G bioconversion ([1]; UDP-Rhamnose, 15 hours): 17.055%
% Reb G bioconversion ([1]; UDP-Rhamnose, 48 hours): 26.923%
% Reb G bioconversion ([1]; UDP-Rhamnose, 96 hours): 31.347%
% Reb G bioconversion ([1]; UDP-Xylose, 0 hours): 0%
% Reb G bioconversion ([1]; UDP-Xylose, 15 hours): 78.904%
% Reb G bioconversion ([1]; UDP-Xylose, 48 hours): 78.311%
% Reb G bioconversion ([1]; UDP-Xylose, 96 hours): 77.211%
glucosylation and xylosylation plateauing after [1]: 20 min

Molecule: rebaudioside F [Reb F]
Rhamnosylation using UDP-rhamnose compared with glucosylation and xylosylation [1]: significantly lower
% Reb F bioconversion ([1]; UDP-Glucose, 0 hours): 0%
% Reb F bioconversion ([1]; UDP-Glucose, 15 hours): 85.9%
% Reb F bioconversion ([1]; UDP-Glucose, 48 hours): 85.96%
% Reb F bioconversion ([1]; UDP-Glucose, 96 hours): 84.4%
% Reb F bioconversion ([1]; UDP-Rhamnose, 0 hours): 0%
% Reb F bioconversion ([1]; UDP-Rhamnose, 15 hours): 17.5%
% Reb F bioconversion ([1]; UDP-Rhamnose, 48 hours): 28.412%
% Reb F bioconversion ([1]; UDP-Rhamnose, 96 hours): 33.216%
% Reb F bioconversion ([1]; UDP-Xylose, 0 hours): 0%
% Reb F bioconversion ([1]; UDP-Xylose, 15 hours): 86.406%
% Reb F bioconversion ([1]; UDP-Xylose, 48 hours): 86.2%
% Reb F bioconversion ([1]; UDP-Xylose, 96 hours): 84.179%
glucosylation and xylosylation plateauing after [1]: 20 min

Second part, the molecule after the results:

Activity relative to the activity of SEQ ID NO:1, Glucose ([2]; 18 hrs): 174%
Activity relative to the activity of SEQ ID NO:1, Glucose ([2]; 48 hrs): 151%
Activity relative to the activity of SEQ ID NO:1, Glucose ([2]; 96 hrs): 170%
Activity relative to the activity of SEQ ID NO:1, Xylose ([2]; 18 hrs): 11.5%
Activity relative to the activity of SEQ ID NO:1, Xylose ([2]; 48 hrs): 9.68%
Activity relative to the activity of SEQ ID NO:1, Xylose ([2]; 96 hrs): 10.9%
B1: SEQ ID4: glucosyltransferase enzyme, 25% identity to SEQ ID NO:1 (protein, listed as Lycium barbarum)
chain: MGTEVTVHKNTLRVLMFPWLAYGHISPFLNVAKKLVDRGFLIYLCSTAINLKSTIKKIPEKYSDSIQLIELHLPELPELPPHYHTTNGLPPHLNHTLQKALKMSKPNFSKILQNLKPDLVIYDLLQQWAEGVANEQNIPAVKLLTSGAAVLSYFFNLVKKPGVEFPFPAIYLRKNELEKMSELLAQSAKDKEPDGVDPFADGNMQVMLMSTSRIIEAKYIDYFSGLSNWKVVPVGPPVQDPIADDADEMELIDWLGKKDENSTVFVSFGSEYFLSKEDREEIAFGLELSNVNFIWVARFPKGEEQNLEDALPKGFLERIGDRGRVLDKFAPQPRILNHPSTGGFISHCGWNSVMESVDFGVPIIAMPIHLDQPMNARLIVELGVAVEIVRDDYGKIHREEIAEILKDVIAGKSGENLKAKMRDISKNLKSIRDEEMDTAAEELIQLCKNSPKLK

overall activity relative to SEQ ID NO:1 ([2]; Table 8): substantially overall increased activity
Activity relative to the activity of SEQ ID NO:1, Glucose ([2]; 18 hrs): 825%
Activity relative to the activity of SEQ ID NO:1, Glucose ([2]; 48 hrs): 578%
Activity relative to the activity of SEQ ID NO:1, Glucose ([2]; 96 hrs): 504%
Activity relative to the activity of SEQ ID NO:1, Xylose ([2]; 18 hrs): 459%
Activity relative to the activity of SEQ ID NO:1, Xylose ([2]; 48 hrs): 392%
Activity relative to the activity of SEQ ID NO:1, Xylose ([2]; 96 hrs): 312%
B2: SEQ ID2: glycosyltransferase variant with a single serine to isoleucine change at position 152 relative to SEQ ID NO:1 (protein, listed as Oryza sativa)
chain: MDSGYSSSYAAAAGMHVVICPWLAFGHLLPCLDLAQRLASRGHRVSFVSTPRNISRLPPVRPALAPLVAFVALPLPRVEGLPDGAESTNDVPHDRPDMVELHRRAFDGLAAPFSEFLGTACADWVIVDVFHHWAAAAALEHKVPCAMMLLGIAHMIASIADRRLERAETESPAAAGQGRPAAAPTFEVARMKLIRTKGSSGMSLAERFSLTLSRSSLVVGRSCVEFEPETVPLLSTLRGKPITFLGLMPPLHEGRREDGEDATVRWLDAQPAKSVVYVALGSEVPLGVEKVHELALGLELAGTRFLWALRKPTGVSDADLLPAGFEERTRGRGVVATRWVPQMSILAHAAVGAFLTHCGWNSTIEGLMFGHPLIMLPIFGDQGPNARLIEAKNAGLQVARNDGDGSFDREGVAAAIRAVAVEEESSKVFQAKAKKLQEIVADMACHERYIDGFIQQLRSYKD

Activity relative to the activity of SEQ ID NO:1, Glucose ([2]; 18 hrs): 100%
Activity relative to the activity of SEQ ID NO:1, Glucose ([2]; 48 hrs): 100%
Activity relative to the activity of SEQ ID NO:1, Glucose ([2]; 96 hrs): 100%
Activity relative to the activity of SEQ ID NO:1, Xylose ([2]; 18 hrs): 100%
Activity relative to the activity of SEQ ID NO:1, Xylose ([2]; 48 hrs): 100%
Activity relative to the activity of SEQ ID NO:1, Xylose ([2]; 96 hrs): 100%
B3: SEQ ID1: uridine 5′-diphospho (UDP) glycosyl transferase of 462 amino acids from Oryza sativa Japonica Group (protein, listed as Oryza sativa)
chain: MDSGYSSSYAAAAGMHVVICPWLAFGHLLPCLDLAQRLASRGHRVSFVSTPRNISRLPPVRPALAPLVAFVALPLPRVEGLPDGAESTNDVPHDRPDMVELHRRAFDGLAAPFSEFLGTACADWVIVDVFHHWAAAAALEHKVPCAMMLLGSAHMIASIADRRLERAETESPAAAGQGRPAAAPTFEVARMKLIRTKGSSGMSLAERFSLTLSRSSLVVGRSCVEFEPETVPLLSTLRGKPITFLGLMPPLHEGRREDGEDATVRWLDAQPAKSVVYVALGSEVPLGVEKVHELALGLELAGTRFLWALRKPTGVSDADLLPAGFEERTRGRGVVATRWVPQMSILAHAAVGAFLTHCGWNSTIEGLMFGHPLIMLPIFGDQGPNARLIEAKNAGLQVARNDGDGSFDREGVAAAIRAVAVEEESSKVFQAKAKKLQEIVADMACHERYIDGFIQQLRSYKD

Activity relative to the activity of SEQ ID NO:1, Glucose ([2]; 18 hrs): 81.5% and 148%
Activity relative to the activity of SEQ ID NO:1, Glucose ([2]; 48 hrs): 87.1% and 132%
Activity relative to the activity of SEQ ID NO:1, Glucose ([2]; 96 hrs): 99.1% and 148%
Activity relative to the activity of SEQ ID NO:1, Xylose ([2]; 18 hrs): 47.1% and 78.1%
Activity relative to the activity of SEQ ID NO:1, Xylose ([2]; 48 hrs): 51.0% and 78.6%
Activity relative to the activity of SEQ ID NO:1, Xylose ([2]; 96 hrs): 38.9% and 62.1%
B4: SEQ ID3: glucosyltransferase enzyme, 27% identity to SEQ ID NO:1 (protein, listed as Solanum lycopersicum)
chain: MATNLRVLMFPWLAYGHISPFLNIAKQLADRGFLIYLCSTRINLESIIKKIPEKYADSIHLIELQLPELPELPPHYHTTNGLPPHLNPTLHKALKMSKPNFSRILQNLKPDLLIYDVLQPWAEHVANEQNIPAGKLLTSCAAVFSYFFSFRKNPGVEFPFPAIHLPEVEKVKIREILAKEPEEGGRLDEGNKQMMLMCTSRTIEAKYIDYCTELCNWKVVPVGPPFQDLITNDADNKELIDWLGTKHENSTVFVSFGSEYFLSKEDMEEVAFALELSNVNFIWVARFPKGEERNLEDALPKGFLERIGERGRVLDKFAPQPRILNHPSTGGFISHCGWNSAMESIDFGVPIIAMPIHNDQPINAKLMVELGVAVEIVRDDDGKIHRGEIAETLKSVVTGETGEILRAKVREISKNLKSIRDEEMDAVAEELIQLCRNSNKSK
